The values below come from PubChem BioAssay (NCI).

Values joined by “and” are separate entries in the source; they are usually repeats but may differ in a detail not shown here. Equal values may be shown once.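 Interpolation was linear, between the two tested concentrations surrounding the appropriate level; five concentrations were tested over 48 hours in 96-well plates. GI50: concentration for 50% inhibition of growth. Definition used: TGI = concentration required for complete inhibition of growth.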 Where only a bound is given, the exact number is not on record here.

Common to all, as to assay: DTP human tumour cell line panel, 48 h
For test [1], the system named is SNB-75 CNS.
In test [2] the test system is DU-145 prostate.
In test [3] the test system is 786-0 renal.
Test [4] deals with RPMI-8226 leukemia.
Test [5] has as its system PC-3 prostate.
Test [6] concerns SNB-19 CNS.
Test [7] concerns HCT-15 colon.
Test [8] has as its system HCT-116 colon.
The subject of test [9] is SF-539 CNS.
For test [10], the system named is CCRF-CEM leukemia.

As a reminder, the GI50 is the concentration that inhibits growth by half. Broadly, the TGI is the concentration giving total growth inhibition. Read a low TGI as more potent growth arrest. On to `O=C(NCC1CCCO1)c1ccc(NC2=C(Cl)C(=O)N(Cc3ccccc3)C2=O)cc1` (stereo not given), for which the GI50 in test [1] is 20 µM; in [2] it was 12.3 µM; in [3] it was 15.2 µM; in test [4] it was 3.36 µM; in test [5], 11.4 µM; in test [6], 21.5 µM. Also, the GI50 is 19 µM in test [7], 13.3 µM in [8] and 15.4 µM in test [9]. Moreover, the TGI is 39.3 µM in test [1]; 30 µM in test [2]; 28.6 µM in [3]; 12.7 µM in test [4]; 25 µM in test [5]; 45.1 µM in test [6]. Besides, the TGI in test [7] was 62.3 µM; in test [8] it was 26.2 µM; in test [9], 31.2 µM.
For `CC(=O)c1cc(C(=O)c2ccc3c(c2)Sc2ccccc2N3)n2ccccc12`, the GI50 is 0.00514 µM and 0.00332 µM in test [2]; 0.0033 µM and 0.00332 µM in test [10]; 0.00459 µM in test [3]; 0.00585 µM and 0.00332 µM in test [4]; 0.00453 µM and 0.00332 µM in test [5]; 0.00824 µM in [6]. The 50% growth inhibitory concentration (GI50) in test [7] was 0.00472 µM and 0.00332 µM; in test [8] it was 0.00398 µM and 0.00332 µM; in test [9], 0.00278 µM and 0.00332 µM. Moreover, the total growth inhibition concentration (TGI) in test [2] was > 33.2 µM; in [10], > 33.2 µM; in test [4], 20.6 µM; in test [5], > 33.2 µM; in test [7], > 33.2 µM; in test [9], 0.00949 µM and 0.0103 µM.
For `CN1CCN(C(=O)COc2ccc(/C=C3\CC4C5CC=C6CC(Cl)CCC6(C)C5CCC4(C)C3=O)cc2)CC1` (stereo not given), the GI50 in test [1] was 19 µM; in test [2], > 100 µM; in [10] it was 3.94 µM; in [3], 88.1 µM; in test [4], 6.9 µM; in [5] it was > 100 µM. In addition, the GI50 in [6] was > 100 µM; in test [8] it was 3.08 µM; in test [9] it was > 100 µM. The TGI is 56.7 µM in [1]; > 100 µM in [2]; > 100 µM in test [10]; > 100 µM in test [3]; > 100 µM in [4]; > 100 µM in test [5]. Besides, the TGI in test [6], in [8] and in test [9] was > 100 µM each time.
As to `O=C1C=CC(=O)c2c(O)c3c(c(O)c21)C[C@H](O)[C@H](O)[C@@H]3O`, the TGI turned out to be 7.99 µM in test [1]; 6.87 µM in test [2]; 4.06 µM in test [3]; 4.85 µM in test [4]; 8.34 µM in test [5]; 26.9 µM in [6]. The TGI in test [7] came to 7.19 µM; in test [8], 1.73 µM; in test [9] it was 9.16 µM.
For the compound `O=C1c2ccccc2-c2c1c1ccccc1c(=O)n2CCCNCCn1c2c(c3ccccc3c1=O)C(=O)c1ccccc1-2`, the GI50 in test [1] was 11.8 µM; in test [2] it was 1.89 µM; in test [3], 1.98 µM; in test [5], 2.43 µM; in [6], 2.48 µM; in [7] it was 2.74 µM. Moreover, the GI50 in test [8] is 1.05 µM; in test [9], 14.6 µM. Further, the TGI in test [1] stood at 32.2 µM; in test [2], 12 µM; in test [3], 9.64 µM; in [5], 10.5 µM; in [6], 11.6 µM; in test [7], 13 µM. Also, the total growth inhibition concentration (TGI) in [8] was 3.13 µM; in test [9], 27.8 µM.
With `C=CCC(N[C@@H](CO)c1ccccc1)c1cn(C(=O)OCC)c2ccccc12` (stereo not given in full), the GI50 in test [2] was 27.6 µM; in test [10] it was 19.2 µM; in [3], 18 µM; in test [4], 17.9 µM; in test [5] it was 22.3 µM; in [7], 18.9 µM. Besides, the GI50 is 15.5 µM in [8] and 20.6 µM in test [9]. Moreover, the TGI was 86 µM in test [2]; 56.7 µM in test [10]; 36.7 µM in test [3]; 52.3 µM in [4]; > 100 µM in [5]; 40.8 µM in [7]. In addition, the concentration for total growth inhibition (TGI) is 29.3 µM in test [8] and 37.3 µM in [9].
In the case of `COC(=O)c1cc2c3ccccc3n3c2c(n1)-c1[nH]c2ccccc2c(=O)c1C3`, the GI50 in [1] is 16 µM; in test [2] it was > 100 µM; in test [10], 2.19 µM; in test [3] it was 16.8 µM; in test [5], > 100 µM; in [6], 26.3 µM. Also, the GI50 in test [7] is > 100 µM; in [8] it was 21 µM; in test [9], 20.3 µM. The concentration for total growth inhibition (TGI) in [1] was 71.3 µM; in test [2], > 100 µM; in [10] it was > 100 µM; in test [3], 60.3 µM; in test [5], > 100 µM; in test [6], > 100 µM. Moreover, the TGI in test [7] was > 100 µM; in test [8], > 100 µM; in test [9], 77.6 µM.
On to `CC(C)CCCCCCCCCCCCC(=O)NCC(=O)NC1C(O)C(O)C(Nc2ncnc3nc[nH]c23)OC1C(O)CO` (stereo not given), for which the GI50 in test [1] was < 1e-05 µM; in [2], < 1e-05 µM; in test [10], 0.0318 µM and 0.023 µM; in [5], < 1e-05 µM; in test [7], 0.00599 µM and 0.0249 µM. For the same compound, the total growth inhibition concentration (TGI) in test [10] was 0.59 µM and 3.36 µM; in test [3], 0.526 µM; in test [6], 0.0121 µM and 0.00367 µM and 0.00683 µM; in test [7] it was 0.896 µM and 1.1 µM.
For `O=C(O)C1[O][Sb][O]C(C(=O)O)C1O` (stereo not given), the GI50 in test [1], in test [2], in [10], in test [3], in test [5] and in test [6] was > 100 µM throughout. In addition, the GI50 in test [7] and in test [8] was > 100 µM in each case. In addition, the total growth inhibition concentration (TGI) in test [1], in test [2], in test [10], in [3], in test [5] and in test [6] was > 100 µM each time. Moreover, the TGI in [7] and in test [8] was > 100 µM in each case.
